Measured values published in ChEMBL document CHEMBL4020798, “Anti-inflammatory effects and corresponding mechanisms of cirsimaritin extracted from Cirsium japonicum var. maackii Maxim” (Bioorg Med Chem Lett, 2017).
Converted amounts (≈) assume the structure as drawn. The source made the active and inactive calls. The calls are words filed in the database; no cut-off is given here.

Tests used:
[1] = biological target: T1, NF-kappa-B inhibitor alpha (Mus musculus) (UniProt Q9Z1E3); experiment: Inhibition of IkappaBalpha degradation in mouse RAW264.7 cells at 5 to 10 ug/ml preincubated for 1 hr followed by LPS-stimulation for 1 hr by Western blot method; format: cell-based
T1 sequence (whole entry): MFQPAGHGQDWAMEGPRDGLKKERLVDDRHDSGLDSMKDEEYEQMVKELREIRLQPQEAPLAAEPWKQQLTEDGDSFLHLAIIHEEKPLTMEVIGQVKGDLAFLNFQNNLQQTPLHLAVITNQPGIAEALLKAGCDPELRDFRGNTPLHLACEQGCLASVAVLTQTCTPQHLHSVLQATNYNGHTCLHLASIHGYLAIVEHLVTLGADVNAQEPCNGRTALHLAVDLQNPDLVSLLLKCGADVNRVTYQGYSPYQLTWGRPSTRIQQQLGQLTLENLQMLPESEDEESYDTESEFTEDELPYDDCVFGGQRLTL

RAW264.7 [2] = experiment: Downregulation of IL-6 mRNA expression levels in mouse RAW264.7 cells at 5 to 10 ug/ml preincubated for 1 hr followed by LPS-stimulation for 4 hrs by qRT-PCR method; format: functional, cell-based
RAW264.7 [3] = experiment: Cytotoxicity against mouse RAW264.7 cells assessed as decrease in cell viability at 1 to 12 ug/ml pretreated for 1 hr followed by LPS stimulation for 20 hrs by CCK8/EZ-cytox assay; format: cell-based; conditions: raw264.7, 20 h
[4] = biological target: T2, Nitric oxide synthase, inducible (Mus musculus) (UniProt P29477); experiment: Inhibition of LPS-induced iNOS expression in mouse RAW264.7 cells at 5 to 10 ug/ml pretreated for 1 hr followed by LPS stimulation for 20 hrs by immunoblotting method; format: cell-based
T2 sequence (whole entry): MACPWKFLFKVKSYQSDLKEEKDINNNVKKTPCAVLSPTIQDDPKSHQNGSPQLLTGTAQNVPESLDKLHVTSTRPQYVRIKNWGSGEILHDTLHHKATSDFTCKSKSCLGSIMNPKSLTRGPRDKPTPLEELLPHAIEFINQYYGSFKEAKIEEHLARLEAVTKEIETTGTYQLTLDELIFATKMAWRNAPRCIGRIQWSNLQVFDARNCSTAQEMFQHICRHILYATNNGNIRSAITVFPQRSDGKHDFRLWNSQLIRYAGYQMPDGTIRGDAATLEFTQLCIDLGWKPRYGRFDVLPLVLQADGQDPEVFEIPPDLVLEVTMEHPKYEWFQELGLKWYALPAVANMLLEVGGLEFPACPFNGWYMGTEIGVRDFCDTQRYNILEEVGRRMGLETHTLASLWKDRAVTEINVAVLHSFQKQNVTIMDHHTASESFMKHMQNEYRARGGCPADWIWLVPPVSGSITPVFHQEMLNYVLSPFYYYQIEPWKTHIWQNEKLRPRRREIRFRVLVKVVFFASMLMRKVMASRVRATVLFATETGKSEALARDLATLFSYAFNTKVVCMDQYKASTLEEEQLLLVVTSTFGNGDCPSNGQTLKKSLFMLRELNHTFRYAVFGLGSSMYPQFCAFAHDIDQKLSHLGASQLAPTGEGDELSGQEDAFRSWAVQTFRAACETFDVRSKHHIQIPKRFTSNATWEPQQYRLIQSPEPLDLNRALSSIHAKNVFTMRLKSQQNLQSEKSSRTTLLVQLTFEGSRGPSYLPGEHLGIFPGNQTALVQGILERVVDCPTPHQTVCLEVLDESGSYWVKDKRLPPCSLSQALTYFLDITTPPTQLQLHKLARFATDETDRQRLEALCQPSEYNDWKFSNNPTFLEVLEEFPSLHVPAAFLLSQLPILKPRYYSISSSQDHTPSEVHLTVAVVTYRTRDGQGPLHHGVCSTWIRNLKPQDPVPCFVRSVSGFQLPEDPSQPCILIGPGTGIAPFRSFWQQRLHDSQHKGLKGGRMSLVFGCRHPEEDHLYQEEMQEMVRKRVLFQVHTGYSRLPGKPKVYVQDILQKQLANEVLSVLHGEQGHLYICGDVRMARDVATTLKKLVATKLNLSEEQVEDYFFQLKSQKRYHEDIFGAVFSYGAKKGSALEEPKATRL

RAW264.7 [5] = experiment: Antiinflammatory activity in mouse RAW264.7 cells assessed as inhibition of LPS-induced TNFalpha release preincubated for 1 hr followed by LPS addition for 20 hrs by sandwich ELISA; format: functional, cell-based
RAW264.7 [6] = experiment: Antiinflammatory activity in mouse RAW264.7 cells assessed as inhibition of LPS-induced IL-6 production preincubated for 1 hr followed by LPS addition for 20 hrs by sandwich ELISA; format: functional, cell-based
RAW264.7 [7] = experiment: Inhibition of LPS-induced NO production in mouse RAW264.7 cells at 2 to 10 ug/ml preincubated for 1 hr followed by LPS-stimulation measured after 20 hrs by Griess assay; format: functional, cell-based
RAW264.7 [8] = experiment: Downregulation of TNFalpha mRNA expression levels in mouse RAW264.7 cells at 5 to 10 ug/ml preincubated for 1 hr followed by LPS-stimulation for 4 hrs by qRT-PCR method; format: functional, cell-based
RAW264.7 [9] = experiment: Downregulation of iNOS mRNA expression levels in mouse RAW264.7 cells at 5 to 10 ug/ml preincubated for 1 hr followed by LPS-stimulation for 4 hrs by qRT-PCR method; format: functional, cell-based
[10] = biological target: T1, NF-kappa-B inhibitor alpha (Mus musculus); experiment: Inhibition of IkappaBalpha phosphorylation in mouse RAW264.7 cells at 5 to 10 ug/ml preincubated for 1 hr followed by LPS-stimulation for 1 hr by Western blot method; format: cell-based
[11] = biological target: RAC-alpha serine/threonine-protein kinase (Mus musculus) (UniProt P31750); experiment: Inhibition of Akt-phosphorylation in mouse RAW264.7 cells at 5 to 10 ug/ml preincubated for 1 hr followed by LPS-stimulation for 1 hr by Western blot analysis; format: cell-based
Chain of RAC-alpha serine/threonine-protein kinase (Mus musculus) (P31750 whole entry): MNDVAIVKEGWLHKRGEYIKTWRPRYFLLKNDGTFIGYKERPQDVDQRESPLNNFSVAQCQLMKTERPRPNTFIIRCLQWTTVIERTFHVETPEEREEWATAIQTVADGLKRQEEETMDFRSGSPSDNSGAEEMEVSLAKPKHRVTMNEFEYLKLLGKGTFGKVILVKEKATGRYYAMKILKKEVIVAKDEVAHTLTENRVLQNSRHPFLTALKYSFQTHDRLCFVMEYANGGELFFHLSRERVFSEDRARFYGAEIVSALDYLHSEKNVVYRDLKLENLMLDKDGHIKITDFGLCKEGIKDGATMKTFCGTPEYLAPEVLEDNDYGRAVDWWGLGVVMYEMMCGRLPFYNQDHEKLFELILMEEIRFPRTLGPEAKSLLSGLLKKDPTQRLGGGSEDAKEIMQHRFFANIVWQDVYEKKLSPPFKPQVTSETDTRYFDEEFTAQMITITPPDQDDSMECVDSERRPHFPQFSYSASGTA

Mus musculus [12] = organism: Mus musculus; experiment: Inhibition of JNK-phosphorylation in mouse RAW264.7 cells at 5 to 10 ug/ml preincubated for 1 hr followed by LPS-stimulation for 1 hr by Western blot analysis; format: cell-based
Mus musculus [13] = organism: Mus musculus; experiment: Inhibition of ERK-phosphorylation in mouse RAW264.7 cells at 5 to 10 ug/ml preincubated for 1 hr followed by LPS-stimulation for 1 hr by Western blot analysis; format: cell-based
[14] = biological target: MAP kinase p38 (Mus musculus) (UniProt P47811+O08911+Q9WUI1+Q9Z1B7); experiment: Inhibition of p38-phosphorylation in mouse RAW264.7 cells at 5 to 10 ug/ml preincubated for 1 hr followed by LPS-stimulation for 1 hr by Western blot analysis; format: cell-based
[15] = biological target: Protein c-Fos (Mus musculus) (UniProt P01101); experiment: Inhibition of c-fos-phosphorylation in mouse RAW264.7 cells preincubated for 1 hr followed by LPS-stimulation for 20 hrs by Western blot analysis; format: cell-based
Chain of Protein c-Fos (Mus musculus) (P01101 whole entry): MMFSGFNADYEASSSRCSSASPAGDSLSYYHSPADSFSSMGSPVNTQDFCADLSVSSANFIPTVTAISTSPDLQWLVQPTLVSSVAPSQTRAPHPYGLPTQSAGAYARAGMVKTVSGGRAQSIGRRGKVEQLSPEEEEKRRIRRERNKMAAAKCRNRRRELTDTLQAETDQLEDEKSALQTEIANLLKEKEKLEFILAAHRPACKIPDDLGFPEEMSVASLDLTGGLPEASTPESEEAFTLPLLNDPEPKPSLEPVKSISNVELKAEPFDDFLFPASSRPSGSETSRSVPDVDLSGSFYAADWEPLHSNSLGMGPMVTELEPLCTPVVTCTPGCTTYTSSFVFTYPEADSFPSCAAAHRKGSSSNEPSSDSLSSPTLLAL

[16] = biological target: Signal transducer and activator of transcription 3 (Mus musculus) (UniProt P42227); experiment: Inhibition of STAT3 phosphorylation at Y705 residue in mouse RAW264.7 cells preincubated for 1 hr followed by LPS-stimulation for 20 hrs by Western blot analysis; format: cell-based
Chain of Signal transducer and activator of transcription 3 (Mus musculus) (P42227 whole entry): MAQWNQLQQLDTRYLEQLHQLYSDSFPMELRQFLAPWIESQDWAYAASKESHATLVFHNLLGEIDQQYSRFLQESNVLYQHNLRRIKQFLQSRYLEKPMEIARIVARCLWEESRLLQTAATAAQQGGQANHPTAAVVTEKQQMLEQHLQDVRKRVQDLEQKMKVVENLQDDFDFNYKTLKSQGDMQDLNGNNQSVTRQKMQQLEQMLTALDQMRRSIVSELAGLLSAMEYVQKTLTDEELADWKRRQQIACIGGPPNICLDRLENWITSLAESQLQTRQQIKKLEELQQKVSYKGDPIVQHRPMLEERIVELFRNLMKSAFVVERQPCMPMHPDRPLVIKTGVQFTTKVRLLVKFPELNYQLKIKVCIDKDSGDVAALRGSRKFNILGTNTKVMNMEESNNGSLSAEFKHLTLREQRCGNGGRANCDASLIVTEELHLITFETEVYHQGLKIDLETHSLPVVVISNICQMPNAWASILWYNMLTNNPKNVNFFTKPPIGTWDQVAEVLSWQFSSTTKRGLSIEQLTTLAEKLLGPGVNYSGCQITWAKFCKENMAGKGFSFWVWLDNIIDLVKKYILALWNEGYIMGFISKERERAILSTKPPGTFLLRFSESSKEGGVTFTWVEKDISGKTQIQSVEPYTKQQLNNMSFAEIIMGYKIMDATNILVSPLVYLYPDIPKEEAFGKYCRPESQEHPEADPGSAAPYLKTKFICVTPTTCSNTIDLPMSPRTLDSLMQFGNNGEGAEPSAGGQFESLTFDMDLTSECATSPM

[17] = biological target: Signal transducer and activator of transcription 3 (Mus musculus) (UniProt P42227); experiment: Inhibition of STAT3 phosphorylation at S727 residue in mouse RAW264.7 cells preincubated for 1 hr followed by LPS-stimulation for 20 hrs by Western blot analysis; format: cell-based
RAW264.7 [18] = experiment: Cytotoxicity against mouse RAW264.7 cells assessed as decrease in cell viability incubated for 20 hrs by EZ-cytox assay; format: cell-based; conditions: RAW264.7, 20 h

inhibition [1]: Active
inhibition [4]: Active
inhibition [10]: Active
inhibition [11]: Active
inhibition [14]: inactive
inhibition [15]: Dose-dependent effect
inhibition [16]: Dose-dependent effect
inhibition [17]: Dose-dependent effect
Structure (SMILES): COc1cc2oc(-c3ccc(O)cc3)cc(=O)c2c(O)c1OC [CIRSIMARITIN]
Activity (RAW264.7 [2]): Dose-dependent effect
Activity (RAW264.7 [3]): Non-Toxic
inhibition (RAW264.7 [5]): Dose-dependent effect
inhibition (RAW264.7 [6]): Dose-dependent effect
inhibition (RAW264.7 [7]): Active
Activity (RAW264.7 [8]): Dose-dependent effect
Activity (RAW264.7 [9]): Dose-dependent effect
inhibition (Mus musculus [12]): inactive
inhibition (Mus musculus [13]): inactive
IC50 (RAW264.7 [18]): 111 µg/mL (≈ 353 µM)
